According to patent US20120148492A1, “BISPHOSPHONIC ACID DERIVATIVE AND COMPOUND THEREOF LABELED WITH RADIOACTIVE METAL NUCLIDE” (FUJIFILM RI PHARMA CO., LTD., priority 2009, published 2012):
Values belong to the compound of their own block, whether it stands above or below them.

Key:
[1] = In vivo distribution of 68Ga-DOTA-alendronate in rats; set-up: species or system rat; settings: for Blood radioactivity / Bone radioactivity / Kidney radioactivity / Large intestine radioactivity / Liver radioactivity / Muscle radioactivity / Small intestine radioactivity / Spleen radioactivity / Bone/blood: Wistar male rats, 120 minutes after drug administration; for Blood radioactivity / Bone radioactivity / Kidney radioactivity / Large intestine radioactivity / Liver radioactivity / Muscle radioactivity / Small intestine radioactivity / Spleen radioactivity: tail vein; for Bone/blood: ratio of radioactivity accumulation
Procedure: To groups, each containing three Wistar male rats, 0.2 mL of each of 68Ga-DOTA-alendronate and 99mTc-MDP (product name: Techne MDP injection, manufactured by FUJIFILM RI Pharma Co., Ltd., 740 MBq/2 mL), each diluted to 12.3 to 19.8 MBq/mL, was administered into the rat tail vein under anesthesia. Then, 120 minutes after administration, the rats were sacrificed, organs were excised, and the weight and the radioactivity of each organ were measured. The measurement values were calculated as % I.D./g tissue weight, which is the radioactivity in each tissue divided by the tissue weight, as the ratio with respect to the dose.

[2] = Rat in vivo distribution experiment; settings: for Blood radioactivity / Bone radioactivity / Kidney radioactivity / Large intestine radioactivity / Liver radioactivity / Muscle radioactivity / Small intestine radioactivity / Spleen radioactivity / Bone/blood: Wistar male rats; for Blood radioactivity / Bone radioactivity / Kidney radioactivity / Large intestine radioactivity / Liver radioactivity / Muscle radioactivity / Small intestine radioactivity / Spleen radioactivity: tail vein; for Bone/blood: ratio of radioactivity accumulation
Procedure: Subsequently, 15, 30, 60, 120, and 240 minutes after administration, the rats were sacrificed, organs were excised, and the weight and the radioactivity of each organ were measured. The measurement values were calculated as % I.D./g tissue weight, which is the radioactivity in each tissue divided by the tissue weight, as the ratio with respect to the dose.

[3] = Wistar male rats, 18.5 to 37 MBq tail vein, from 60 minutes after administration
Procedure: To Wistar male rats, 68Ga-NOTA-alendronate and 99m Tc-MDP were each administered into the rat tail vein in amounts of 18.5 to 37 MBq under anesthesia. Then, 60 and 180 minutes after administration, images were taken by PET/CT or a SPECT camera.

[4] = test system: local bone metastasis model (human prostate cancer-derived cells transplanted into the right tibia); settings: local bone metastasis model mouse, approximately 6.0 MBq, from 60 minutes after administration
Procedure: Human prostate cancer-derived cells were transplanted into the right tibia of a mouse to produce a local bone metastasis model. To this model mouse, approximately 6.0 MBq of 68Ga-NOTA-alendronate was administered into the […] under anesthesia. An image was taken by PET/CT 60 minutes after administration.

radioactivity accumulation in bone ([1]; 120 minutes after administration, as 99mTc-MDP did): high radioactivity accumulation in bone
Blood radioactivity [1]: 0.024 % I.D./g
Bone radioactivity [1]: 4.54 % I.D./g
Kidney radioactivity [1]: 0.26 % I.D./g
Large intestine radioactivity [1]: 0.055 % I.D./g
Liver radioactivity [1]: 0.018 % I.D./g
Muscle radioactivity [1]: 0.005 % I.D./g
Small intestine radioactivity [1]: 0.522 % I.D./g
Spleen radioactivity [1]: 0.020 % I.D./g
clearance from blood ([1]; rat, versus 99mTc-MDP): delayed clearance from blood
Bone/blood [1]: 189
ratio of radioactivity accumulation in bone/blood ([1]; two hours after administration, versus 99mTc-MDP): no improvement
SMILES: O=C([O-])CN1CCN(CC(=O)[O-])CCN(CC(=O)NCCCC(O)(P(=O)(O)O)P(=O)(O)O)CCN(CC(=O)[O-])CC1.[68Ga+3] [68Ga-DOTA-alendronate]

Blood radioactivity ([2]; 15 min after administration): 0.399 % I.D./g
Bone radioactivity ([2]; 15 min after administration): 3.64 % I.D./g
Kidney radioactivity ([2]; 15 min after administration): 3.43 % I.D./g
Large intestine radioactivity ([2]; 15 min after administration): 0.132 % I.D./g
Liver radioactivity ([2]; 15 min after administration): 0.081 % I.D./g
Muscle radioactivity ([2]; 15 min after administration): 0.085 % I.D./g
Small intestine radioactivity ([2]; 15 min after administration): 0.121 % I.D./g
Spleen radioactivity ([2]; 15 min after administration): 0.103 % I.D./g
Blood radioactivity ([2]; 30 min after administration): 0.145 % I.D./g
Bone radioactivity ([2]; 30 min after administration): 4.17 % I.D./g
Kidney radioactivity ([2]; 30 min after administration): 0.89 % I.D./g
Large intestine radioactivity ([2]; 30 min after administration): 0.054 % I.D./g
Liver radioactivity ([2]; 30 min after administration): 0.039 % I.D./g
Muscle radioactivity ([2]; 30 min after administration): 0.033 % I.D./g
Small intestine radioactivity ([2]; 30 min after administration): 0.070 % I.D./g
Spleen radioactivity ([2]; 30 min after administration): 0.046 % I.D./g
Blood radioactivity ([2]; 60 min after administration): 0.030 % I.D./g
Bone radioactivity ([2]; 60 min after administration): 4.59 % I.D./g
Kidney radioactivity ([2]; 60 min after administration): 0.43 % I.D./g
Large intestine radioactivity ([2]; 60 min after administration): 0.023 % I.D./g
Liver radioactivity ([2]; 60 min after administration): 0.020 % I.D./g
Muscle radioactivity ([2]; 60 min after administration): 0.008 % I.D./g
Small intestine radioactivity ([2]; 60 min after administration): 0.056 % I.D./g
Spleen radioactivity ([2]; 60 min after administration): 0.021 % I.D./g
Blood radioactivity ([2]; 120 min after administration): 0.005 % I.D./g
Bone radioactivity ([2]; 120 min after administration): 5.19 % I.D./g
Kidney radioactivity ([2]; 120 min after administration): 0.37 % I.D./g
Large intestine radioactivity ([2]; 120 min after administration): 0.019 % I.D./g
Liver radioactivity ([2]; 120 min after administration): 0.015 % I.D./g
Muscle radioactivity ([2]; 120 min after administration): 0.004 % I.D./g
Small intestine radioactivity ([2]; 120 min after administration): 0.073 % I.D./g
Spleen radioactivity ([2]; 120 min after administration): 0.014 % I.D./g
Blood radioactivity ([2]; 240 min after administration): 0.003 % I.D./g
Bone radioactivity ([2]; 240 min after administration): 4.75 % I.D./g
Kidney radioactivity ([2]; 240 min after administration): 0.28 % I.D./g
Large intestine radioactivity ([2]; 240 min after administration): 0.077 % I.D./g
Liver radioactivity ([2]; 240 min after administration): 0.016 % I.D./g
Muscle radioactivity ([2]; 240 min after administration): 0.002 % I.D./g
Small intestine radioactivity ([2]; 240 min after administration): 0.011 % I.D./g
Spleen radioactivity ([2]; 240 min after administration): 0.012 % I.D./g
ratio of radioactivity accumulation in bone to that in blood ([2]; compared to 99mTc-MDP, from an early stage after administration): dominantly improved
accumulation in bone ([2]; compared to 99mTc-MDP, rat): equivalent value of accumulation in bone
non-specific accumulation in other organs ([2]; rat, similar amount to that of 99mTc-MDP): almost no non-specific accumulation
Bone/blood ([2]; 15 min after administration): 9
Bone/blood ([2]; 30 min after administration): 29
Bone/blood ([2]; 60 min after administration): 155
Bone/blood ([2]; 120 min after administration): 958
Bone/blood ([2]; 240 min after administration): 1696
SMILES: O=C([O-])CN1CCN(CC(=O)[O-])CCN(C(CCC(=O)NCCCC(O)(P(=O)(O)O)P(=O)(O)O)C(=O)[O-])CC1.[68Ga+3] (stereo not drawn) [68Ga-NOTA-alendronate]
clearance of radioactivity from blood ([2]; compared to 99mTc-MDP, rat): more rapid clearance of radioactivity from blood
visualization of bone in images [3]: bone is clearly visualized
visualization of bone and bone lesion in PET/CT image [4]: bone and the arrowed bone lesion are clearly visualized

Blood radioactivity ([2]; 15 min after administration): 0.415 % I.D./g
Bone radioactivity ([2]; 15 min after administration): 3.25 % I.D./g
Kidney radioactivity ([2]; 15 min after administration): 2.84 % I.D./g
Large intestine radioactivity ([2]; 15 min after administration): 0.121 % I.D./g
Liver radioactivity ([2]; 15 min after administration): 0.086 % I.D./g
Muscle radioactivity ([2]; 15 min after administration): 0.085 % I.D./g
Small intestine radioactivity ([2]; 15 min after administration): 0.134 % I.D./g
Spleen radioactivity ([2]; 15 min after administration): 0.107 % I.D./g
Blood radioactivity ([2]; 30 min after administration): 0.171 % I.D./g
Bone radioactivity ([2]; 30 min after administration): 3.41 % I.D./g
Kidney radioactivity ([2]; 30 min after administration): 1.02 % I.D./g
Large intestine radioactivity ([2]; 30 min after administration): 0.062 % I.D./g
Liver radioactivity ([2]; 30 min after administration): 0.048 % I.D./g
Muscle radioactivity ([2]; 30 min after administration): 0.036 % I.D./g
Small intestine radioactivity ([2]; 30 min after administration): 0.093 % I.D./g
Spleen radioactivity ([2]; 30 min after administration): 0.056 % I.D./g
Blood radioactivity ([2]; 60 min after administration): 0.044 % I.D./g
Bone radioactivity ([2]; 60 min after administration): 3.97 % I.D./g
Kidney radioactivity ([2]; 60 min after administration): 0.62 % I.D./g
Large intestine radioactivity ([2]; 60 min after administration): 0.020 % I.D./g
Liver radioactivity ([2]; 60 min after administration): 0.029 % I.D./g
Muscle radioactivity ([2]; 60 min after administration): 0.010 % I.D./g
Small intestine radioactivity ([2]; 60 min after administration): 0.081 % I.D./g
Spleen radioactivity ([2]; 60 min after administration): 0.027 % I.D./g
Blood radioactivity ([2]; 120 min after administration): 0.018 % I.D./g
Bone radioactivity ([2]; 120 min after administration): 4.07 % I.D./g
Kidney radioactivity ([2]; 120 min after administration): 0.36 % I.D./g
Large intestine radioactivity ([2]; 120 min after administration): 0.053 % I.D./g
Liver radioactivity ([2]; 120 min after administration): 0.022 % I.D./g
Muscle radioactivity ([2]; 120 min after administration): 0.005 % I.D./g
Small intestine radioactivity ([2]; 120 min after administration): 0.299 % I.D./g
Spleen radioactivity ([2]; 120 min after administration): 0.019 % I.D./g
Blood radioactivity ([2]; 240 min after administration): 0.012 % I.D./g
Bone radioactivity ([2]; 240 min after administration): 4.25 % I.D./g
Kidney radioactivity ([2]; 240 min after administration): 0.35 % I.D./g
Large intestine radioactivity ([2]; 240 min after administration): 0.467 % I.D./g
Liver radioactivity ([2]; 240 min after administration): 0.019 % I.D./g
Muscle radioactivity ([2]; 240 min after administration): 0.004 % I.D./g
Small intestine radioactivity ([2]; 240 min after administration): 0.056 % I.D./g
Spleen radioactivity ([2]; 240 min after administration): 0.019 % I.D./g
Bone/blood ([2]; 15 min after administration): 8
Bone/blood ([2]; 30 min after administration): 20
Bone/blood ([2]; 60 min after administration): 91
Bone/blood ([2]; 120 min after administration): 228
Bone/blood ([2]; 240 min after administration): 358
Blood radioactivity [1]: 0.021 % I.D./g
Bone radioactivity [1]: 4.38 % I.D./g
Kidney radioactivity [1]: 0.44 % I.D./g
Large intestine radioactivity [1]: 0.015 % I.D./g
Liver radioactivity [1]: 0.024 % I.D./g
Muscle radioactivity [1]: 0.007 % I.D./g
Small intestine radioactivity [1]: 0.224 % I.D./g
Spleen radioactivity [1]: 0.020 % I.D./g
Bone/blood [1]: 209
SMILES: O.O.O=P([O-])([O-])CP(=O)([O-])[O-].[99Tc+4] [99mTc-MDP]
